Results on 16 molecules are retold here after ChEMBL document CHEMBL1136083, “Potent Grb2-SH2 domain antagonists not relying on phosphotyrosine mimics” (Bioorg Med Chem Lett, 2003).

Assay [1] has as its target T1, Growth factor receptor-bound protein 2 (Homo sapiens, UniProt P62993). The experiment in a line: Binding affinity against Growth factor receptor bound protein 2 using ELISA assay. Background: An ELISA detects its analyte on a solid surface through an enzyme-linked reagent.
Assay [2] addresses T1, Growth factor receptor-bound protein 2. The experiment in a line: Inhibitory activity against Growth factor receptor bound protein 2 using ELISA assay.

*1 amine or outer side, *2 acyl side, *3 side chain or, on linkers, in order; H or OH if unused. Where a SMILES comes first, the peptide text is derived from it. Bridges are numbered along the chain shown (N, C = ends). [ ]: non-standard residue; d: D form. Gla = N[C@@H](CC(C(=O)O)C(=O)O)C(=O)O; X1 = O=C([C@]1(N[*:1])CC2CCC1C2)[*:2]

T1 sequence (P62993 whole entry): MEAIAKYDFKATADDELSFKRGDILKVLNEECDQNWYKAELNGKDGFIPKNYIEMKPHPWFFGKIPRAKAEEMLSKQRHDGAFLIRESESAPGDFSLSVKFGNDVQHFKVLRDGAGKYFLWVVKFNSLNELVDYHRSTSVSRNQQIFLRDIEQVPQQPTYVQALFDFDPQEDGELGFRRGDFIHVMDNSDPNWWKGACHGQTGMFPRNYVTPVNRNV

What is called IC50 is the point on the concentration scale where inhibition reaches its midpoint. High values mean a need for much substance, low ones inhibition by little substance. `CSCC[C@H]1NC(=O)CNC(=O)[C@@H](C(C)C)NC(=O)[C@H](CC(N)=O)NC(=O)[C@@H](CCC(=O)O)NC(=O)[C@H](Cc2ccc(O)cc2)NC(=O)[C@@H](CC(C)C)NC(=O)[C@H](CC(C(=O)O)C(=O)O)NC(=O)CSC[C@@H](C(N)=O)NC(=O)[C@H](Cc2ccc(O)cc2)NC1=O`: the IC50 in assay [1] was 991 nM.
`CC(C)C[C@H]1NC(=O)[C@H](CC(C(=O)O)C(=O)O)NC(=O)CSC[C@@H](C(N)=O)NC(=O)[C@H](Cc2ccc(O)cc2)NC(=O)[C@@H](Cc2ccc(-c3ccccc3)cc2)NC(=O)CNC(=O)[C@@H](C(C)C)NC(=O)[C@H](CC(N)=O)NC(=O)C2(CCCCC2)NC(=O)[C@H](Cc2ccc(O)cc2)NC1=O` came in with a half-maximal inhibitory concentration (IC50) in assay [1] of 502 nM.
Still for that read-out and setting: with `CSCC[C@H]1NC(=O)CNC(=O)[C@@H](C(C)C)NC(=O)[C@H](CC(N)=O)NC(=O)[C@@H](CCCC(=O)O)NC(=O)[C@H](Cc2ccc(O)cc2)NC(=O)[C@@H](CC(C)C)NC(=O)[C@H](CC(C(=O)O)C(=O)O)NC(=O)CSC[C@@H](C(N)=O)NC(=O)[C@H](Cc2ccc(O)cc2)NC1=O` the figure was 1510 nM; with `CSCC[C@H]1NC(=O)CNC(=O)[C@@H](C(C)C)NC(=O)[C@H](CC(N)=O)NC(=O)C2(CCCCC2)NC(=O)[C@H](Cc2ccc(O)cc2)NC(=O)[C@@H](CC(C)C)NC(=O)[C@H](CC(C(=O)O)C(=O)O)NC(=O)CSC[C@@H](C(N)=O)NC(=O)[C@H](Cc2ccc(O)cc2)NC1=O`, 525 nM.
The molecule `CC(C)C[C@H]1NC(=O)[C@H](CC(C(=O)O)C(=O)O)NC(=O)CSC[C@@H](C(N)=O)NC(=O)[C@H](Cc2ccc(O)cc2)NC(=O)[C@@H](Cc2ccc3ccccc3c2)NC(=O)CNC(=O)[C@@H](C(C)C)NC(=O)[C@H](CC(N)=O)NC(=O)C2(CCCCC2)NC(=O)[C@H](Cc2ccc(O)cc2)NC1=O` had an IC50 in assay [1] of 271 nM.
On the same count and under the same terms, next, `CC(C)C[C@H]1NC(=O)[C@H](CC(C(=O)O)C(=O)O)NC(=O)CSC[C@@H](C(N)=O)NC(=O)[C@H](Cc2ccc(O)cc2)NC(=O)[C@@H](Cc2c(F)c(F)c(F)c(F)c2F)NC(=O)CNC(=O)[C@@H](C(C)C)NC(=O)[C@H](CC(N)=O)NC(=O)C2(CCCCC2)NC(=O)[C@H](Cc2ccc(O)cc2)NC1=O`: 238 nM; `CC(C)C[C@H]1NC(=O)[C@H](CC(C(=O)O)C(=O)O)NC(=O)CSC[C@@H](C(N)=O)NC(=O)[C@H](Cc2ccc(O)cc2)NC(=O)[C@@H](CC(C)(C)C)NC(=O)CNC(=O)[C@@H](C(C)C)NC(=O)[C@H](CC(N)=O)NC(=O)C2(CCCCC2)NC(=O)[C@H](Cc2ccc(O)cc2)NC1=O`: 244 nM.
As to `CSCC[C@@H]1NC(=O)CNC(=O)[C@H](C(C)C)NC(=O)[C@H](CC(N)=O)NC(=O)[C@H](CCC(=O)O)NC(=O)[C@H](Cc2ccc(O)cc2)NC(=O)[C@H](CC(C)C)NC(=O)[C@H](CCC(=O)O)NC(=O)CSC[C@@H](C(N)=O)NC(=O)[C@H](Cc2ccc(O)cc2)NC1=O` (HELM PEPTIDE1{[O=C(C[*:3])[*:2]].E.L.Y.E.N.V.G.M.Y.C.[am]}$PEPTIDE1,PEPTIDE1,1:R3-11:R3$$$V2.0), the half-maximal inhibitory concentration (IC50) is > 100000 nM in assay [1] and 20000 nM in assay [2].
Consider `CSCC[C@@H]1NC(=O)CNC(=O)[C@H](C(C)C)NC(=O)[C@H](CC(N)=O)NC(=O)[C@@H]2CCCN2C(=O)[C@H](Cc2ccc(O)cc2)NC(=O)[C@H](CC(C)C)NC(=O)[C@H](CCC(=O)O)NC(=O)CSC[C@@H](C(N)=O)NC(=O)[C@H](Cc2ccc(O)cc2)NC1=O` (HELM PEPTIDE1{[O=C(C[*:3])[*:2]].E.L.Y.P.N.V.G.M.Y.C.[am]}$PEPTIDE1,PEPTIDE1,1:R3-11:R3$$$V2.0), for which the concentration for half-maximal inhibition (IC50) in assay [1] amounted to 7830 nM.
For the molecule `CC(C)C[C@H]1NC(=O)[C@H](CC(C(=O)O)C(=O)O)NC(=O)C[S+]([O-])C[C@@H](C(N)=O)NC(=O)[C@H](Cc2ccc(O)cc2)NC(=O)[C@@H](CC(C)(C)C)NC(=O)CNC(=O)[C@@H](C(C)C)NC(=O)[C@H](CC(N)=O)NC(=O)C2(CCCCC2)NC(=O)[C@H](Cc2ccc(O)cc2)NC1=O` (stereo in doubt; 12), the half-maximal inhibitory concentration (IC50) in assay [1] turned out to be 74.6 nM.
`CC(C)C[C@H]1NC(=O)[C@H](CC(C(=O)O)C(=O)O)NC(=O)C[S+]([O-])C[C@@H](C(N)=O)NC(=O)[C@H](Cc2ccc(O)cc2)NC(=O)[C@@H](CC(C)(C)C)NC(=O)CNC(=O)[C@@H](C(C)C)NC(=O)[C@H](CC(N)=O)NC(=O)C2(CCCCC2)NC(=O)[C@H](Cc2ccc(O)cc2)NC1=O` (stereo in doubt; 13): the IC50 in assay [1] turned out to be 747 nM.
As for `CC(C)C[C@H]1NC(=O)[C@H](CC(C(=O)O)C(=O)O)NC(=O)C[S+]([O-])C[C@@H](C(N)=O)NC(=O)[C@H](Cc2ccc(O)cc2)NC(=O)[C@@H](Cc2ccc3ccccc3c2)NC(=O)CNC(=O)[C@@H](C(C)C)NC(=O)[C@H](CC(N)=O)NC(=O)C2(CCCCC2)NC(=O)[C@H](Cc2ccc(O)cc2)NC1=O` (stereo in doubt; 14), the concentration for half-maximal inhibition (IC50) in assay [1] came to 314 nM.
`CC(C)C[C@H]1NC(=O)[C@H](CC(C(=O)O)C(=O)O)NC(=O)C[S+]([O-])C[C@@H](C(N)=O)NC(=O)[C@H](Cc2ccc(O)cc2)NC(=O)[C@@H](Cc2ccc3ccccc3c2)NC(=O)CNC(=O)[C@@H](C(C)C)NC(=O)[C@H](CC(N)=O)NC(=O)C2(CCCCC2)NC(=O)[C@H](Cc2ccc(O)cc2)NC1=O` (stereo in doubt; 15) registered a half-maximal inhibitory concentration (IC50) in assay [1] of 4860 nM.
In the case of `CC(C)C[C@H]1NC(=O)[C@H](CC(C(=O)O)C(=O)O)NC(=O)C[S+]([O-])C[C@@H](C(N)=O)NC(=O)[C@H](Cc2ccc(O)cc2)NC(=O)[C@@H](C2CCCCC2)NC(=O)CNC(=O)[C@@H](C(C)C)NC(=O)[C@H](CC(N)=O)NC(=O)C2(CCCCC2)NC(=O)[C@H](Cc2ccc(O)cc2)NC1=O` (stereo in doubt; 16), in assay [1], the IC50 was 149 nM.
In assay [1], `CC(C)C[C@H]1NC(=O)[C@H](CC(C(=O)O)C(=O)O)NC(=O)C[S+]([O-])C[C@@H](C(N)=O)NC(=O)[C@H](Cc2ccc(O)cc2)NC(=O)[C@@H](C2CCCCC2)NC(=O)CNC(=O)[C@@H](C(C)C)NC(=O)[C@H](CC(N)=O)NC(=O)C2(CCCCC2)NC(=O)[C@H](Cc2ccc(O)cc2)NC1=O` (stereo in doubt; 17) gave a half-inhibitory concentration (IC50) of 1410 nM.
The molecule `CSCC[C@@H]1NC(=O)CNC(=O)[C@H](C(C)C)NC(=O)[C@H](CC(N)=O)NC(=O)[C@@]2(CC3CCC2C3)NC(=O)[C@H](Cc2ccc(O)cc2)NC(=O)[C@H](CC(C)C)NC(=O)[C@H](CC(C(=O)O)C(=O)O)NC(=O)CSC[C@@H](C(N)=O)NC(=O)[C@H](Cc2ccc(O)cc2)NC1=O` (some centres not stated) ({CH2CO}-[Gla]LY[X1]NVGMYC-NH2; thioether N-10) yielded a half-inhibitory concentration (IC50) in assay [1] of 730 nM.
